Assay results taken from patent US20070167408A1, “NOVEL ALKYL PHOSPHOLIPID DERIVATIVES WITH REDUCED CYTOTOXICITY AND USES THEREOF” (ZENTARIS GmbH, priority 2005, published 2007).
Where two headings read alike, the source gives them in different places.

What was measured:
Type in all cases: cell-based
[1] = tested on: PC3 (human prostate carcinoma) cells; assay: XTT cytotoxicity assay, PC3 cells; conditions: read-out: PC3 [IC50 (μM)]
Method: (§1) Cytotoxicity of selected compounds of the invention against different mammalian cell lines was assessed as follows.
(§2) Human tumor cell lines KB/HeLa (ATCC CCL17, human cervix carcinoma), PC3 (ATCC CRL1435, human prostate carcinoma) and RKOp21 (human colon adenocarcinoma; Schmidt et al., Oncogene 2000, 19: 2423-2429) cells were used in an automated XTT screening assay for the assessment of cytotoxicity.
(§3) The XTT assay quantifies cellular metabolic activity which correlates with cell viability and cell number. Test compounds (selected compounds of the invention and known substances as controls) are dissolved in culture medium at 600 μM and added to the tumor cells in 10 different concentrations in a semi-logarithmic fashion starting from 100 μM as highest concentration.
(§4) In a second set of experiments employing PC3, RKOp21 and SKOV-3 (ATCC HTB-77, human ovary adenocarcinoma) cells, test and reference compounds were dissolved in 70% Ethanol/30% H2O in a stock concentration of 10 mM and diluted in cell culture medium to yield either 31.6 μM (PC3 and RKOp21) or 100 μM (SKOV-3) final concentration.
(§5) 48 h later cellular metabolic activity of cells treated with test compounds is quantified by measurement of the absorbance at 490 nm (conversion of XTT dye) in comparison to untreated control cells (100% viability).
(§6) KB/HeLa and PC3 cells were cultivated in RPMI 1640 medium (Gibco, Cat. No. 42401-018) supplemented with 10% heat inactivated fetal calf serum (FCS, Biochrom AG, Cat. No. S0115), 2 mM L-glutamine (Gibco, Cat. No. 25030-24) and 2% Penicillin-Streptomycin (PenStrep, Gibco, Cat. No. 15140-122). RKOp21 cells were grown in DMEM+GlutaMAXTM-I medium (Gibco, Cat. No. 61965-026) supplemented with 10% heat inactivated fetal calf serum (FCS, Biochrom AG, Cat. No. S0115), 2 mM L-glutamine (Gibco, Cat. No. 25030-24), 2% Penicillin-Streptomycin (PenStrep, Gibco, Cat. No. 15140-122) and 1% 1M HEPES (Gibco, Cat. No. 15630-056). All cells were cultured at 37° C. in 5% CO2 humidified air.
(§7) On the first day of the experiment cells were harvested from exponential phase cultures by trypsination, counted and plated into 96 well flat-bottom micro titer plates depending on the cell line as listed below:
(§8) After a 24 h recovery to allow the cells to resume exponential growth, the test compounds were diluted immediately prior to use and transferred in 25 μl volume to the wells.
(§9) Following 2 days of continuous drug exposure 50 μl of freshly prepared XTT-PMS solution {2% 0.386 mg/ml PMS (N-Methyl Dibenzopyrazine Methylsulphate; Sigma, Cat. No. P9625) in PBS+98% 1 mg/ml XTT (Sodium 2,3-bis(2-methoxy-4-nitro-5-sulfophenyl)-5-[(phenylamino)carbonyl]-2H-Tetrazolium; Serva, Cat. No. 38450) in RPMI 1640 medium without phenol red} was added to the wells. To measure the proportion of living cells, the cells were incubated for 3 h with XTT-PMS reagent at 37° C., 5% CO2, humidified atmosphere allowing to form the formazan salt. The amount of soluble formazan salt produced by cellular reduction of XTT is quantified by measuring the absorbance at 490 nm using the Biomek® 2000 ELISA plate reader. %-inhibition (cytotoxicity) of each test compound was calculated in relation to untreated control cells. Inhibition curves were generated and IC50 values calculated by using GraphPad Prism.

[2] = tested on: RKOp21 (human colon adenocarcinoma) cells; assay: XTT cytotoxicity assay, RKOp21 cells; conditions: read-out: RKOp21 [IC50 (μM)]
Method: as §1, §2, §3, §4, §5, §6, §7, §8, §9

[3] = tested on: KB/HeLa (human cervix carcinoma) cells; assay: XTT cytotoxicity assay, KB/HeLa cells; conditions: read-out: KB/HELA [IC50 (μM)]
Method: as §1, §2, §3, §5, §6, §7, §8, §9

[4] = Homo sapiens, PC-3, XTT, 48 h exposure
[5] = Homo sapiens, XTT, 48 h exposure
[6] = Homo sapiens, HeLa, XTT, 48 h exposure

Structure (SMILES)	IC50 [1, 4]	IC50 [2, 5]	IC50 [3, 6]	other results
CC(C)CCCC(C)C1CCC2C3CCC4CC(OP(=O)([O-])OCC[N+](C)(C)C)CCC4(C)C3CCC12C (stereo not drawn) [Compound 41]	> 100 µM	> 100 µM	> 100 µM	
CC(C)CCCC(C)C1CCC2C3CC=C4CC(OP(=O)([O-])OCC[N+](C)(C)C)CCC4(C)C3CCC12C (stereo not drawn) [Compound 46]	> 100 µM	> 100 µM	> 100 µM	
CC(C)CCCC(C)C1CCC2C3=CC=C4CC(OP(=O)([O-])OCC[N+](C)(C)C)CCC4(C)C3CCC21C (stereo not drawn) [Compound 48]	> 100 µM	> 100 µM	> 100 µM	
CCCCC/C=C\C/C=C\CCCCCCCCOP(=O)([O-])OCC[N+](C)(C)C [Compound 55]	> 100 µM	> 100 µM	> 100 µM	
C[C@H](CCC(=O)O)[C@H]1CCC2[C@@H]3CC[C@@H]4C[C@H](OP(=O)([O-])OCC[N+](C)(C)C)CC[C@]4(C)[C@H]3CC[C@@]21C (stereo partly drawn) [Compound 59]	> 100 µM	> 100 µM	> 100 µM	
CCCCCCCCCCCCCCCCOP(=O)(O)OCCN1CCOCC1 [Compound 60]	> 100 µM	> 100 µM	> 100 µM	
CCCCCCCCCCCCCCCCOP(=O)(O)OCCN1CCCC1 [Compound 63]	> 100 µM	> 100 µM	> 100 µM	
CCCCCCCCCCCCCCCCOP(=O)([O-])OC1C[N+]2(C)CCC1CC2 (stereo not drawn) [Compound 76]	25 µM	68.8 µM	11.3 µM	
CCCCCCCC/C=C\CCCCCCCCOP(=O)([O-])OCC[N+](C)(C)CC [Compound 82]	45.6 µM	20.5 µM	37.7 µM	
CCCCCCCCCCCCCCCCCCCCOP(=O)([O-])OC1CCC[N+](C)(C)CC1 (stereo not drawn) [Compound 86]	> 100 µM	> 100 µM	75.6 µM	
CCCCCCCC/C=C\CCCCCCCCOP(=O)([O-])OCC[N+]1(C)CCCC1 [Compound 91]	86.8 µM	> 100 µM	> 100 µM	
CCCCCCCC/C=C\CCCCCCCCOP(=O)([O-])OCC[N+]1(C)CCCCC1 [Compound 97]	49.4 µM	89.4 µM	> 100 µM	
CCCCCCCCCCOCCOCCOP(=O)([O-])OCC[N+](C)(C)C [Compound 123]	21.8 µM	76.6 µM	39.1 µM	
CCCCCCCC/C=C\CCCCCCCCCCCCOP(=O)([O-])OCC[N+]1(C)CCC(O)CC1 (stereo not drawn) [Compound 133]	81.6 µM	> 100 µM	> 100 µM	
CCCCCCCCC#CCCCCCCCCOP(=O)([O-])OCC[N+]1(C)CCCCC1 [Compound 145]	> 100 µM	> 100 µM	> 100 µM	
CCCCCCCCCCCCCCCCCCOP(=O)([O-])OCc1cccc[n+]1C [Compound 147]	> 100 µM	> 100 µM	> 100 µM	

Structure (SMILES)	IC50 [1, 4]	IC50 [2, 5]	IC50 [3, 6]	other results
CCCCCCCCCCCCCCCCCCOP(=O)([O-])OCC1CC[N+](C)(C)CC1 [Compound 152]	23.9 µM	> 100 µM	32.3 µM	
CCCCCCCCCCCCCCCCOP(=O)([O-])OCC1CC[N+](C)(C)CC1 [Compound 153]	39.8 µM	> 100 µM	38.2 µM	
CCCCCCCCCCCCCCCCCCOP(=O)([O-])OCCN1CC[N+](C)(C)CC1 [Compound 154]	18.2 µM	77.4 µM	12.6 µM	
CCCCCCCC/C=C\CCCCCCCCCCCCOP(=O)([O-])OCC[As+](CC)(CC)CC [Compound 159]				IC50 ([1]; XTT, 48 h exposure): 37.7 µM; IC50 ([2]; XTT, 48 h exposure): 21 µM; IC50 ([3]; XTT, 48 h exposure): > 100 µM
CCCCCCCC/C=C\CCCCCCCCCCCCOP(=O)([O-])OCCC1=C(C)[N+](C)=CC1 [Compound 172]	29.8 µM	65.5 µM	> 100 µM	
CCCCCCC1CCC(CCOP(=O)([O-])OCC[N+]2(C)CCCCC2)CC1 (stereo not drawn) [Compound 180]	> 100 µM	> 100 µM	> 100 µM	
CCCCCCCC/C=C\CCCCCCCCCCCCOP(=O)([O-])OC1CCC[N+](C)(CCc2ccccc2)CC1 (stereo not drawn) [Compound 185]	30.4 µM	> 100 µM	> 100 µM	
CCCCCCCCCCCCCCCCOP(=O)([O-])OCC[n+]1cccc(C(=O)OCC)c1 [Compound 190]	73.3 µM	> 100 µM	100 µM	
CCCCCCCCCCCCCCCCOP(=O)([O-])OC1CC[N+](CC)(CC)CC1 [Compound 200]	34.5 µM	> 100 µM	66.4 µM	
CCCCCCCC/C=C\CCCCCCCCCCCCOP(=O)([O-])OC1CC[N+](CC)(CC)CC1 [Compound 203]	63.1 µM	> 100 µM	> 100 µM	
CCC(C)CC(C)CC(C)CC(C)COP(=O)([O-])OCC[N+](C)(C)C (stereo not drawn) [Compound 235]	> 100 µM	> 100 µM	> 100 µM	
CCCCCCCC/C=C\CCCCCCCCOCCOCCOP(=O)([O-])OC1CC[N+](C)(C)CC1 [Compound 256]	82 µM	> 100 µM	> 100 µM	
CCC(C)CC(C)CC(C)CC(C)COP(=O)([O-])OC1CC[N+](C)(C)CC1 (stereo not drawn) [Compound 258]	> 100 µM	> 100 µM	> 100 µM	
C#CC[N+]1(C)CCC(OP(=O)([O-])OCCCCCCCCCCCCCCCC)CC1 (stereo not drawn) [Compound 262]	31.2 µM	> 100 µM	10.1 µM	
CCCCCCCC/C=C\CCCCCCCCCCCCOP(=O)([O-])OCC[N+](CC)(CC)CC [Compound 275]	69.2 µM	44.4 µM	> 100 µM	
CCCCCCCC/C=C\CCCCCCCC(=O)OCC(COP(=O)([O-])OCC[As+](C)(C)C)OC(=O)CCCCCCC/C=C\CCCCCCCC (stereo not drawn) [Compound 311]				IC50 ([1]; Homo sapiens, PC-3, 48 h): > 100 µM; IC50 ([2]; Homo sapiens, 48 h): > 100 µM; IC50 ([3]; Homo sapiens, HeLa, 48 h): > 100 µM
